Source: paper PMC12751061, “Expression and characterization of an endo-β-1,6-galactanase from Arabidopsis thaliana” (Biochemical Journal, 2025)

Target: T1, ATIYA1 (Arabidopsis thaliana, UniProt F4HP22)
T1 construct: gene At1g13130; secreted from Komagataella phaffii X-33 (pPICZalpha-A), N-glycosylated, Ni-NTA purified
Test: HPAEC-PAD hydrolysis time course
Assay type: biochemical
Conditions: 100 µM substrate, 10 nM enzyme, 0.1 M sodium acetate pH 5.0, 30°C

T1 sequence (F4HP22 entry or part of it): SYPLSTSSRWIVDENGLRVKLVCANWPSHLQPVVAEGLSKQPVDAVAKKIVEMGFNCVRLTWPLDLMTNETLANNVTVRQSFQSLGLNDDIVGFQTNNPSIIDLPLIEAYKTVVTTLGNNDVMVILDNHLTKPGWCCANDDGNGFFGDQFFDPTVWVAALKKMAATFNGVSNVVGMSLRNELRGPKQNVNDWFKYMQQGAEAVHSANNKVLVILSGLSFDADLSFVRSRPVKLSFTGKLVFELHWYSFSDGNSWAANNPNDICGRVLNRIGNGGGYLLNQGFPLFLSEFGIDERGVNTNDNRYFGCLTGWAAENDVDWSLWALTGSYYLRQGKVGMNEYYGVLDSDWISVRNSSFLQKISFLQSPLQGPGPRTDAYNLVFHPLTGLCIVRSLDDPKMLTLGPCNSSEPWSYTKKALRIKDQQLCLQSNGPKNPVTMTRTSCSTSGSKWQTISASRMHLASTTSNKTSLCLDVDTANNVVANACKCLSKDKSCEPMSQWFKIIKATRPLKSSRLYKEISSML

## CO[C@@H]1O[C@H](CO[C@@H]2O[C@H](CO[C@@H]3O[C@H](CO[C@@H]4O[C@H](CO[C@@H]5O[C@H](CO)[C@H](O)[C@H](O)[C@H]5O)[C@H](O)[C@H](O)[C@H]4O)[C@H](O)[C@H](O)[C@H]3O)[C@H](O)[C@H](O)[C@H]2O)[C@H](O)[C@H](O)[C@H]1O [methyl-β-1,6-galactopentaoside]
  HPAEC-PAD hydrolysis time course: preferring higher degrees of polymerization such as methyl-β-1,6-galactopentaoside and methyl-β-1,6-galactohexaoside

## CO[C@@H]1O[C@H](CO[C@@H]2O[C@H](CO[C@@H]3O[C@H](CO[C@@H]4O[C@H](CO[C@@H]5O[C@H](CO[C@@H]6O[C@H](CO)[C@H](O)[C@H](O)[C@H]6O)[C@H](O)[C@H](O)[C@H]5O)[C@H](O)[C@H](O)[C@H]4O)[C@H](O)[C@H](O)[C@H]3O)[C@H](O)[C@H](O)[C@H]2O)[C@H](O)[C@H](O)[C@H]1O [methyl-β-1,6-galactohexaoside]
  HPAEC-PAD hydrolysis time course: preferring higher degrees of polymerization such as methyl-β-1,6-galactopentaoside and methyl-β-1,6-galactohexaoside
